What was measured:
[1] = molecular target: cholinesterase (ChE), susceptible strain; assay: Inhibition of cholinesterase (acetylthiocholine method), susceptible strain enzyme; assay type: biochemical, green rice leafhopper, Nephotettix cincticeps; conditions: for IC50: 50% inhibition concentration, 30° C. 30 min with inhibitor, read-out: Inhibition of Cholinesterase I50 (M) S
Experimental: The activity of ChE was performed by the acethyethiocholine method [Ellman (1961), Biochemical Pharmacology 7: 88-95].
[…]. After centrifuged (30,000 g, 10 min.), the supernatant was used as the source of ChE.
(§1) (2) Inhibition: 1.0 ml of enzyme solution was incubated with 0.1 ml of inhibitor which diluted with acetone at 30° C. for 30 min. ((2) solution).
(3) Determination of ChE activity: 1.0 ml of acetylthiochline (3.5/2×10^-2 M), 1.0 ml of DTNB (5,5'-dithiobis-2-nitrobenzoic acid, 2.5×10^-4 M) and 4.0 ml of phosphate buffer (1/15 M, pH 7.4) were added to the (2) solution and incubated at 30° C. for 10 min. After incubation, […] of eserine (2×10^-3 M) was added in order to stop the enzyme reaction and the optical density of the yellow solution was measured at 412 mμ on the spectrophotometer.

[2] = test system: cholinesterase (ChE), resistant strain; assay type: biochemical, green rice leafhopper, Nephotettix cincticeps; conditions: for Inhibition of Cholinesterase R/S (resistant ratio): ratio of the resistant strain to the susceptible strain (I50), 30 min; for IC50 / rate of inhibition (%) in 10^-3 M, R: resistant strain; for IC50: 50% inhibition concentration, 30° C. 30 min with inhibitor, read-out: Inhibition of Cholinesterase I50 (M) R
Experimental: After centrifuged (30,000 g, 10 min.), the supernatant was used as the source of ChE.
as §1
(3) Determination of ChE activity: 1.0 ml of acetylthiochline (3.5/2×10^-2 M), 1.0 ml of DTNB (5,5'-dithiobis-2-nitrobenzoic acid, 2.5×10^-4 M) and 4.0 ml of phosphate buffer (1/15 M, pH 7.4) were added to the (2) solution and incubated at 30° C. for 10 min.

[3] = test system: resistant green rice leafhoppers (R); conditions: 1440 min; for Insecticidal Activity R/S (resistant ratio): ratio of the resistant strain to the susceptible strain (LD50)
Experimental: (1) A 20-mg portion of a given test compound was weighed out and dissolved in 10 ml of acetone. The resultant solution was diluted at proper times with acetone.
(2) With a micro-syringe, the acetone solution of the test compound was topically applied to the thoracic region of female green rice leafhoppers at a fixed dose of 0.2 μl per head.
(3) The female green rice leafhoppers thus treated were placed in a plastic cup prepared in advance (measuring 7 cm in diameter and 3.5 cm in depth and containing rice seeds) and kept at a constant temperature of 26±1° C. After 24 hours' standing, the dead insects were counted.
In the case of a mixed insecticide, the LD50 was shown as a total dosage.

[4] = test system: green rice leafhoppers of the strain RN; assay: Test Example 3: dust spray test (20 mesh metal gauze cylinder); assay type: in vivo, Nephotettix cincticeps; conditions: for death ratio (%), mixture with Compound No. 1 / death ratio (%), mixture with Compound No. 6* / death ratio (%), mixture with Compound No. 24* / death ratio (%), mixture with Compound No. 35* / death ratio (%), mixture with Compound No. 40* / death ratio (%), mixture with Compound No. 49* / death ratio (%), mixture with Compound No. 81* / death ratio (%), mixture with Compound No. 118* / death ratio (%), mixture with Carbofuran / death ratio (%), mixture with Methomyl: Table 9, RN; for death ratio (%), mixture with Compound No. 1: dust mixed with 1; for death ratio (%), mixture with Compound No. 6*: dust mixed with 6*; for death ratio (%), mixture with Compound No. 24*: dust mixed with 24*; for death ratio (%), mixture with Compound No. 35*: dust mixed with 35*; for death ratio (%), mixture with Compound No. 40*: dust mixed with 40*; for death ratio (%), mixture with Compound No. 49*: dust mixed with 49*; for death ratio (%), mixture with Compound No. 81*: dust mixed with 81*; for death ratio (%), mixture with Compound No. 118*: dust mixed with 118*; for death ratio (%), mixture with Carbofuran: dust mixed with Carbofuran; for death ratio (%), mixture with Methomyl: dust mixed with Methomyl; for Effect of individual compound (RN), death ratio (%) (Table 9): dust, compound alone, RN strain
Experimental: The insecticides in the form of dust were tested for insecticidal activity.
The test for insecticidal activity was performed by the following procedure. […] The dust of a test compound (pulverized by means of a shaking pulverizer made by Taira Kosakusho, Ltd.) was applied onto the tube contents at a prescribed rate by spraying from outside the metal gauze by means of a bell-jar duster. The dust of the test compound was prepared uniformly mixing 2 parts of the dust of the individual compound or 1 part each of the dusts of the mixture components (total 2 parts) and 98 parts of a carrier obtained by mixing talc and clay in equal volumes.

Row | SMILES | IC50 [1] | Inhibition of Cholinesterase R/S (resistant ratio) [2] | IC50 [2] | other results
1 | CCNC(=O)Oc1ccccc1C(C)C [Compound 2, 2-isopropylpheny-N-ethylcarbamate] | 3.2e-05 M | 1.6 | 5.2e-05 M | Insecticidal Activity R/S (resistant ratio) [3]: 2.1
2 | CCCCNC(=O)Oc1ccccc1C(C)CC (stereo not drawn) [Compound 9] | > 0.001 M | < 0.1 | 0.00014 M | Insecticidal Activity R/S (resistant ratio) [3]: < 1.0
3 | CCNC(=O)Oc1cccc(C(C)C)c1 [Compound 12] | 3.7e-05 M | 0.5 | 1.7e-05 M | Insecticidal Activity R/S (resistant ratio) [3]: 3.7
4 | CCCCNC(=O)Oc1cccc(C(C)C)c1 [Compound 14] | 7.4e-05 M | 0.2 | 1.7e-05 M | –
5 | CCNC(=O)Oc1cccc(C(C)CC)c1 (stereo not drawn) [Compound 16] | 6.5e-06 M | 0.9 | 5.6e-06 M | Insecticidal Activity R/S (resistant ratio) [3]: 3.7
6 | CCCCNC(=O)Oc1cccc(C(C)CC)c1 (stereo not drawn) [Compound 18] | 5e-05 M | 0.09 | 4.3e-06 M | Insecticidal Activity R/S (resistant ratio) [3]: 0.9
7 | CCCC(C)c1cccc(OC(=O)NCC)c1 (stereo not drawn) [Compound 20] | 3.4e-06 M | 1.2 | 4.1e-06 M | Insecticidal Activity R/S (resistant ratio) [3]: 1.5
8 | C=CCNC(=O)Oc1cccc(C(C)CCC)c1 (stereo not drawn) [Compound 23] | – | 0.3 | 1.3e-06 M | Insecticidal Activity R/S (resistant ratio) [3]: 0.7
9 | CCCCNC(=O)Oc1cccc(C)c1 [Compound 27] | > 0.001 M | < 0.3 | 0.00027 M | –
10 | CCCCNC(=O)Oc1ccc(C)c(C)c1 [Compound 38] | 0.00056 M | 0.04 | 2e-05 M | –
11 | CCCCNC(=O)Oc1cc(C)cc(C)c1 [Compound 43] | 0.00068 M | 0.04 | 2.7e-05 M | –
12 | CCCCNC(=O)Oc1cc(C)cc(C(C)C)c1 [Compound 48] | > 0.001 M | < 0.09 | 8.8e-05 M | –
13 | CNC(=O)Oc1cc(C)c(C)cc1C [Compound 59, reference compound] | 2.3e-06 M | 24.8 | 5.7e-05 M | –
14 | CNC(=O)Oc1ccccc1OC [Compound 76, reference compound] | 1.7e-05 M | 32.3 | 0.00055 M | death ratio (%), mixture with Compound No. 1 [4]: 15.0%; death ratio (%), mixture with Compound No. 6* [4]: 0%; death ratio (%), mixture with Compound No. 24* [4]: 20.0%; death ratio (%), mixture with Compound No. 35* [4]: 10.0%; death ratio (%), mixture with Compound No. 40* [4]: 0%; death ratio (%), mixture with Compound No. 49* [4]: 0%; death ratio (%), mixture with Compound No. 81* [4]: 35.0%; death ratio (%), mixture with Compound No. 118* [4]: 45.0%; death ratio (%), mixture with Carbofuran [4]: 60.0%; death ratio (%), mixture with Methomyl [4]: 55.0%; Effect of individual compound (RN), death ratio (%) (Table 9) [4]: 0%
15 | CCOc1ccccc1OC(=O)NC [Compound 79, reference compound] | 2.5e-05 M | 12.0 | 0.0003 M | death ratio (%), mixture with Compound No. 1 [4]: 0%; death ratio (%), mixture with Compound No. 6* [4]: 0%; death ratio (%), mixture with Compound No. 24* [4]: 0%; death ratio (%), mixture with Compound No. 35* [4]: 0%; death ratio (%), mixture with Compound No. 40* [4]: 10.0%; death ratio (%), mixture with Compound No. 49* [4]: 0%; death ratio (%), mixture with Compound No. 81* [4]: 5.0%; death ratio (%), mixture with Compound No. 118* [4]: 25.0%; death ratio (%), mixture with Carbofuran [4]: 40.0%; Effect of individual compound (RN), death ratio (%) (Table 9) [4]: 0%
16 | CNC(=O)Oc1ccccc1OC(C)C [Compound 81, 2-isopropoxyphenyl-N-methylcarbamate, reference compound] | – | – | – | death ratio (%), mixture with Compound No. 1 [4]: 0%; death ratio (%), mixture with Compound No. 6* [4]: 5.0%; death ratio (%), mixture with Compound No. 24* [4]: 0%; death ratio (%), mixture with Compound No. 35* [4]: 15.0%; death ratio (%), mixture with Compound No. 40* [4]: 20.0%; death ratio (%), mixture with Compound No. 49* [4]: 0%; death ratio (%), mixture with Compound No. 81* [4]: 10.0%; death ratio (%), mixture with Compound No. 118* [4]: 57.5%; death ratio (%), mixture with Carbofuran [4]: 30.0%; death ratio (%), mixture with Methomyl [4]: 35.0%; Effect of individual compound (RN), death ratio (%) (Table 9) [4]: 0%; Effect of individual compound, LD50 (μ g/g) (Table 5-2) ([3]; compound alone): > 100 μ g/g

Row | SMILES | IC50 [1] | Inhibition of Cholinesterase R/S (resistant ratio) [2] | IC50 [2] | other results
17 | CCC(C)Oc1ccccc1OC(=O)NC (stereo not drawn) [Compound 86, reference compound] | 2.1e-06 M | 31.9 | 6.7e-05 M | –
18 | C=CCOc1ccccc1OC(=O)NC [Compound 88, reference compound] | 7e-06 M | 15.7 | 0.00011 M | –
19 | C#CCOc1ccccc1OC(=O)NC [Compound 90, reference compound] | 8.2e-06 M | 9.6 | 7.9e-05 M | –
20 | CCOc1cccc(OC(=O)NC)c1 [Compound 92, reference compound] | 1.7e-05 M | 17.6 | 0.0003 M | death ratio (%), mixture with Compound No. 1 [4]: 0%; death ratio (%), mixture with Compound No. 6* [4]: 0%; death ratio (%), mixture with Compound No. 24* [4]: 0%; death ratio (%), mixture with Compound No. 35* [4]: 10.0%; death ratio (%), mixture with Compound No. 40* [4]: 5.0%; death ratio (%), mixture with Compound No. 49* [4]: 0%; death ratio (%), mixture with Compound No. 81* [4]: 0%; death ratio (%), mixture with Compound No. 118* [4]: 25.0%; death ratio (%), mixture with Carbofuran [4]: 20.0%; death ratio (%), mixture with Methomyl [4]: 40.0%; Effect of individual compound (RN), death ratio (%) (Table 9) [4]: 0%
21 | CCNC(=O)Oc1cccc(OCC)c1 [Compound 93] | 0.00044 M | 0.8 | 0.00035 M | –
22 | C=CCOc1cccc(OC(=O)NC)c1 [Compound 98, reference compound] | 4.1e-06 M | 87.8 | 0.00036 M | –
23 | C#CCOc1cccc(OC(=O)NC)c1 [Compound 100, reference compound] | 3.5e-05 M | 24.3 | 0.00085 M | –
24 | CNC(=O)Oc1ccccc1N(C)C [Compound 106, reference compound] | 9.6e-06 M | 13.5 | 0.00013 M | –
25 | CNC(=O)Oc1ccccc1NC(C)C [Compound 110, reference compound] | 2.3e-06 M | 73.9 | 0.00017 M | –
26 | CNC(=O)Oc1ccc(SC)c(C)c1 [Compound 135, reference compound] | 1e-05 M | 3.5 | 3.5e-05 M | –
27 | CNC(=O)Oc1ccccc1 [Compound 140, reference compound] | 0.00013 M | – | > 0.001 M | rate of inhibition (%) in 10^-3 M, R [2]: 42.5%
28 | CCNC(=O)Oc1ccccc1 [Compound 141, phenyl-N-ethylcarbamate] | > 0.001 M | – | > 0.001 M | rate of inhibition (%) in 10^-3 M, S [1]: 30.4%; rate of inhibition (%) in 10^-3 M, R [2]: 43.4%
29 | CCCNC(=O)Oc1ccccc1 [Compound 142, phenyl-N-n-propylcarbamate] | > 0.001 M | < 0.6 | 0.00066 M | rate of inhibition (%) in 10^-3 M, S [1]: 12.0%
30 | CCCCNC(=O)Oc1ccccc1 [Compound 143] | > 0.001 M | – | > 0.001 M | rate of inhibition (%) in 10^-3 M, S [1]: 3.3%; rate of inhibition (%) in 10^-3 M, R [2]: 46.0%
31 | C=CCNC(=O)Oc1ccccc1 [Compound 144, phenyl-N-allylcarbamate] | > 0.001 M | < 0.5 | 0.00052 M | rate of inhibition (%) in 10^-3 M, S [1]: 10.00%
